Test results published in the kinase profiling compilation of Christmann-Franck et al. (2016).

Assays:
Test in all cases: radiometric filter-binding kinase assay, Kinase HotSpot
Conditions in all cases: compound 0.5 µM; ATP 10 µM
AKT3 (human) = AKT3 (human) (UniProt Q9Y243)
CAMK2A (human) = CAMK2A (human) (UniProt Q9UQM7)
BTK (human) = BTK (human) (UniProt Q06187)
CAMK2D (human) = CAMK2D (human) (UniProt Q13557)
FER (human) = FER (human) (UniProt P16591)
MAP3K5 (human) = MAP3K5 (human) (UniProt Q99683)
PAK6 (human) = PAK6 (human) (UniProt Q9NQU5)
STK33 (human) = STK33 (human) (UniProt Q9BYT3)
PTK2B (human) = PTK2B (human) (UniProt Q14289)
TAOK3 (human) = TAOK3 (human) (UniProt Q9H2K8)
ACVR1B (human) = ACVR1B (human) (UniProt P36896)
INSR (human) = INSR (human) (UniProt P06213)
PBK (human) = PBK (human) (UniProt Q96KB5)
DAPK1 (human) = DAPK1 (human) (UniProt P53355)
MAPK11 (human) = MAPK11 (human) (UniProt Q15759)
[1] = biological target: TYK2 JH1 catalytic (human) (UniProt P29597)
MAP3K8 (human) = MAP3K8 (human) (UniProt P41279)
MAP3K14 (human) = MAP3K14 (human) (UniProt Q99558)
AURKC (human) = AURKC (human) (UniProt Q9UQB9)
MAP3K3 (human) = MAP3K3 (human) (UniProt Q99759)
PDGFRB (human) = PDGFRB (human) (UniProt P09619)
PRKD3 (human) = PRKD3 (human) (UniProt O94806)
CDK2 CCNA2 (human) = CDK2 CCNA2 (human) (UniProt P24941+P20248)
NEK11 (human) = NEK11 (human) (UniProt Q8NG66)
SRPK2 (human) = SRPK2 (human) (UniProt P78362)
CSK (human) = CSK (human) (UniProt P41240)
PRKACG (human) = PRKACG (human) (UniProt P22612)
AXL (human) = AXL (human) (UniProt P30530)
PRKD1 (human) = PRKD1 (human) (UniProt Q15139)
MAPK8 (human) = MAPK8 (human) (UniProt P45983)
CSNK2A1 (human) = CSNK2A1 (human) (UniProt P68400)
ROCK1 (human) = ROCK1 (human) (UniProt Q13464)
LCK (human) = LCK (human) (UniProt P06239)
CAMK1D (human) = CAMK1D (human) (UniProt Q8IU85)
RPS6KA3 KD1 KD2 (human) = RPS6KA3 KD1 KD2 (human) (UniProt P51812)
EPHA4 (human) = EPHA4 (human) (UniProt P54764)
CDK6 CCND1 (human) = CDK6 CCND1 (human) (UniProt Q00534+P24385)
MAP4K2 (human) = MAP4K2 (human) (UniProt Q12851)
DYRK3 (human) = DYRK3 (human) (UniProt O43781)
STK38 (human) = STK38 (human) (UniProt Q15208)
SLK (human) = SLK (human) (UniProt Q9H2G2)
STK10 (human) = STK10 (human) (UniProt O94804)

Sequence of DYRK3 (human) (O43781 whole entry, looked up): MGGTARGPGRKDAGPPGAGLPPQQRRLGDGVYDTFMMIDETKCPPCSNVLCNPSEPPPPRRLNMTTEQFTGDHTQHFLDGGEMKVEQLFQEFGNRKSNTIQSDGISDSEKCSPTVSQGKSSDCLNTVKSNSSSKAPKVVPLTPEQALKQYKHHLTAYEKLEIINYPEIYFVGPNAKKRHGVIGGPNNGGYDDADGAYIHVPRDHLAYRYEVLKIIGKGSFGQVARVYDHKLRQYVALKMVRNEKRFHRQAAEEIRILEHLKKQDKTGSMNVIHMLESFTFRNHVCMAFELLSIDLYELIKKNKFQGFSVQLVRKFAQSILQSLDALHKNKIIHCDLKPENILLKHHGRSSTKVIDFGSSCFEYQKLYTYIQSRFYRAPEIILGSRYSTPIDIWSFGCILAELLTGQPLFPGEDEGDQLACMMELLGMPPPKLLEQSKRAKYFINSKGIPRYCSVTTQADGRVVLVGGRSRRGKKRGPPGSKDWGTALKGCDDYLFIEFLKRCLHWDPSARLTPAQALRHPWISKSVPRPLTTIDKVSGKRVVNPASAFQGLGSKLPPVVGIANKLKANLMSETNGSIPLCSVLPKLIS
Sequence of PRKD3 (human) (O94806 whole entry, looked up): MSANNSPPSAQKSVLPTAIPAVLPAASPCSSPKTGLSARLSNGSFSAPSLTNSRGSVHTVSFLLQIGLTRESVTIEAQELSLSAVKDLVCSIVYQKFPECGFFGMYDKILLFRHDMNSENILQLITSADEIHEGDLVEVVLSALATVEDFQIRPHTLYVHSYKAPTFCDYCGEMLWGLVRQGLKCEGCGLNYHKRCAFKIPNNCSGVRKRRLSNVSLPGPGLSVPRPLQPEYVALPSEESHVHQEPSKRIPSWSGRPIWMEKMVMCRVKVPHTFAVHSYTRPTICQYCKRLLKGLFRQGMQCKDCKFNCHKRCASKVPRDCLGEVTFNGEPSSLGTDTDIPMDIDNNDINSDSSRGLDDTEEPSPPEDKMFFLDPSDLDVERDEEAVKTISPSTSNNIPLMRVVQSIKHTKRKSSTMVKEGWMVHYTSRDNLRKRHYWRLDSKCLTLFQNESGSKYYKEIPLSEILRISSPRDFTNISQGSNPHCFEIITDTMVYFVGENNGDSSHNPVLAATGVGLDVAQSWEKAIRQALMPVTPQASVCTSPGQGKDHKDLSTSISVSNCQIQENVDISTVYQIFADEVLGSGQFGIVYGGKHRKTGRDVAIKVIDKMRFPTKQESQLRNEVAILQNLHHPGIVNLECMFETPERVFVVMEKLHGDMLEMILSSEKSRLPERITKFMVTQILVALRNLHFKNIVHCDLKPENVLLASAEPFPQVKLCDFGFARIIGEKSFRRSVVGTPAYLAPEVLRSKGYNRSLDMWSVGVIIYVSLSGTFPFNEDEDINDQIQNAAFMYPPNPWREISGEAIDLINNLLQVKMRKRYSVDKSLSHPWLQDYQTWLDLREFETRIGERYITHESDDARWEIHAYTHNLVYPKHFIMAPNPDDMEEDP
Sequence of MAPK11 (human) (Q15759 whole entry, looked up): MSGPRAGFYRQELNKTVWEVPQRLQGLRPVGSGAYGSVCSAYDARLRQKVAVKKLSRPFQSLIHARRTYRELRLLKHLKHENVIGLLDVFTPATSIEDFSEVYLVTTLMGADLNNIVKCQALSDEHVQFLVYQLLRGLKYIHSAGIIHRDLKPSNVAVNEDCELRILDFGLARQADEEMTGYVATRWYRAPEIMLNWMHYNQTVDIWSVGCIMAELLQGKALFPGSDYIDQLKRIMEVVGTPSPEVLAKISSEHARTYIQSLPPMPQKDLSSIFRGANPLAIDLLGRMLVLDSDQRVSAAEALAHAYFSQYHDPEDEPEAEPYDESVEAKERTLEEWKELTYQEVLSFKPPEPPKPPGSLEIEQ
Sequence of INSR (human) (P06213 whole entry, looked up): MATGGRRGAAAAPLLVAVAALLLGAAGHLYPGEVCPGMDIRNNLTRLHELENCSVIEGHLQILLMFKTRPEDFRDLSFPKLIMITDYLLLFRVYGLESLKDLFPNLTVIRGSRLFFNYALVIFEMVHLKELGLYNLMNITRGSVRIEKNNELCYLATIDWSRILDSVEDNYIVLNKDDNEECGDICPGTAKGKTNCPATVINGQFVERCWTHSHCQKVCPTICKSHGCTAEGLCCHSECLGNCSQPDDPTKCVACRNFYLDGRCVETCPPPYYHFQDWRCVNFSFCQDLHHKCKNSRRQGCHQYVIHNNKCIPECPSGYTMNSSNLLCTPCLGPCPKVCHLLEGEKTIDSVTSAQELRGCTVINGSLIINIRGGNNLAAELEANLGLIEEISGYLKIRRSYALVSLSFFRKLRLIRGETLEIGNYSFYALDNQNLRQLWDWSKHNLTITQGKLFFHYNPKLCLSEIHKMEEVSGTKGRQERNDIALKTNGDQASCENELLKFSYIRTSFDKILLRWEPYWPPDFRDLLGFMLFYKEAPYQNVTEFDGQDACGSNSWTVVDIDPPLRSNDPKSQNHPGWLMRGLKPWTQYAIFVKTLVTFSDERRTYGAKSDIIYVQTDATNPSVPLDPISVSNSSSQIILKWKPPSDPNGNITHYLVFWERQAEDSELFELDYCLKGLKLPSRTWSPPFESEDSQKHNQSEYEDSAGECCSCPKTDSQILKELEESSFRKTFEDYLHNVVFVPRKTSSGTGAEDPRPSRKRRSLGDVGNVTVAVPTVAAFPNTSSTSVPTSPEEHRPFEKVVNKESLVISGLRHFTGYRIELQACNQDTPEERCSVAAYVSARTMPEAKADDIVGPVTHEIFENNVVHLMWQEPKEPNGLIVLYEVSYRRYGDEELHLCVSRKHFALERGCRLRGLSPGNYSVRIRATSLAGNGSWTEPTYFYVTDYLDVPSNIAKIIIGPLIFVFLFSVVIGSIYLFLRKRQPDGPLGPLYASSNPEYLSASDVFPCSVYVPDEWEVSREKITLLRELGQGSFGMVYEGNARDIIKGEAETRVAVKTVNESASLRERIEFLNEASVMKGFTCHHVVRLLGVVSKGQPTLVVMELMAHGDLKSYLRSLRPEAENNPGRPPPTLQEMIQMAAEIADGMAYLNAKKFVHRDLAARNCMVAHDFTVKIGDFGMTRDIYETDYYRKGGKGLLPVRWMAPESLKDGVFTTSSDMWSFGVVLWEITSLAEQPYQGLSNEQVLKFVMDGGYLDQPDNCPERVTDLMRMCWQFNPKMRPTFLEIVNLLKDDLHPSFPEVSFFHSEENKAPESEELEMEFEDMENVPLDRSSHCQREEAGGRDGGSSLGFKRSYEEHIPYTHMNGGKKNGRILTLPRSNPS
Sequence of TAOK3 (human) (Q9H2K8 whole entry, looked up): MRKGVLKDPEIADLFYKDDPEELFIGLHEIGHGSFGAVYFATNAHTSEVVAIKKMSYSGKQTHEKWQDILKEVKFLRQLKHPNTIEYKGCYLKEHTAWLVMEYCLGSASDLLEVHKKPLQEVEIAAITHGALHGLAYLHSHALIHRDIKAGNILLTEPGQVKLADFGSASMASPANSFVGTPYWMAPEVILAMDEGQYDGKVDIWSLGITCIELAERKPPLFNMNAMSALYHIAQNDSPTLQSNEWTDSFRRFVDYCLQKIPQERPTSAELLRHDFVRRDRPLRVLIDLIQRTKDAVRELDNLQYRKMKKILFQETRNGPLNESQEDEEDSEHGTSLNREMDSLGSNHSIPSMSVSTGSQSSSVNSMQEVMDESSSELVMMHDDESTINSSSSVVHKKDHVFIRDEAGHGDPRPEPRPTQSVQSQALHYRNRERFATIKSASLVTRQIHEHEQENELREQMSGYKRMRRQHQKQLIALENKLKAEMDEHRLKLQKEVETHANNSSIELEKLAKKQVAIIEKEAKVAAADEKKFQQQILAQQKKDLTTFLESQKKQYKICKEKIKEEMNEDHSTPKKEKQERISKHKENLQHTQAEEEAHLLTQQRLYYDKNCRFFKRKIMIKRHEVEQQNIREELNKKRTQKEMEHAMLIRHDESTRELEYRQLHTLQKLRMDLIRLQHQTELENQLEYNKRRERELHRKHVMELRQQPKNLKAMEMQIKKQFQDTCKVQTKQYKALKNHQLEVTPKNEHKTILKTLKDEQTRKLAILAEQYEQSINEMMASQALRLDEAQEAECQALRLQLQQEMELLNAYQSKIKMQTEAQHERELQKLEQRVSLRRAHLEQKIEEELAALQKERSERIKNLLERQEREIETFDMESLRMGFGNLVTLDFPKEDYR
Sequence of NEK11 (human) (Q8NG66 whole entry, looked up): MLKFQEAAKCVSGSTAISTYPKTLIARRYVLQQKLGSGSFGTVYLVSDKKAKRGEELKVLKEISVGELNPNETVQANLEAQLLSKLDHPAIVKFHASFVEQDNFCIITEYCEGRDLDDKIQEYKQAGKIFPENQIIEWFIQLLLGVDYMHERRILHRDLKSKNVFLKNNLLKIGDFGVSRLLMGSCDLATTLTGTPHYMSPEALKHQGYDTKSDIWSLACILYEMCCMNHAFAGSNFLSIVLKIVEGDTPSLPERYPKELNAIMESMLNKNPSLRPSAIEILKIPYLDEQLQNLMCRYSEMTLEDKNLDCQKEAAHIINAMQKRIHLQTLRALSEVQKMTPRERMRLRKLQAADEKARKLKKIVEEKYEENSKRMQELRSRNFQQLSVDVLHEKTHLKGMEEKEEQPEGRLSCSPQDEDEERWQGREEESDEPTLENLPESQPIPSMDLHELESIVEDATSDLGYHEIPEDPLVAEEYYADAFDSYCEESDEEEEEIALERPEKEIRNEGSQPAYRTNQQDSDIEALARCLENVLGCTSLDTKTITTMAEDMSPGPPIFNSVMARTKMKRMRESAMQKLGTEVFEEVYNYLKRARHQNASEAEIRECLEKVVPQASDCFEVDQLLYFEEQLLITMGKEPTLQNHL
Sequence of AURKC (human) (Q9UQB9 whole entry, looked up): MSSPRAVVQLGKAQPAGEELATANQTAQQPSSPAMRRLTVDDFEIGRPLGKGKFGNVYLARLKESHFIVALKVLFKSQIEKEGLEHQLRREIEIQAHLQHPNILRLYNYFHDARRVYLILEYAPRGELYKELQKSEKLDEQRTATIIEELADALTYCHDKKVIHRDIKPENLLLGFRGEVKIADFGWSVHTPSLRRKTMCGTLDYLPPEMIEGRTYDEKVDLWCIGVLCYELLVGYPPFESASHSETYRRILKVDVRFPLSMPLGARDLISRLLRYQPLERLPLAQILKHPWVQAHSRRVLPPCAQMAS

Work on `O=C1Nc2ccc(Cl)cc2/C1=C/c1cc(Cl)c(O)c(Cl)c1` yielded a residual activity (AKT3 (human)) of 96.9%, a residual activity (CAMK2A (human)) of 92.9% and a residual activity (BTK (human)) of 92.1%. The residual activity (CAMK2D (human)) was 80.2%, the residual activity (FER (human)) was 92.1% and the residual activity (MAP3K5 (human)) was 106%. The residual activity (PAK6 (human)) was 97%, the residual activity (STK33 (human)) was 85.1% and the residual activity (PTK2B (human)) was 96.7%. It also gave a residual activity (TAOK3 (human)) of 50.6%, a residual activity (ACVR1B (human)) of 127% and a residual activity (INSR (human)) of 99.2%. For the same compound, the residual activity (PBK (human)) was 86.1%, the residual activity (DAPK1 (human)) was 90% and the residual activity (MAPK11 (human)) was 99.2%. It also gave a residual activity [1] of 26.9%, a residual activity (MAP3K8 (human)) of 93.1% and a residual activity (MAP3K14 (human)) of 111%. The residual activity (AURKC (human)) was 78.6%, the residual activity (MAP3K3 (human)) was 101% and the residual activity (PDGFRB (human)) was 76.9%. The residual activity (PRKD3 (human)) was 80.7%, the residual activity (CDK2 CCNA2 (human)) was 99.5% and the residual activity (NEK11 (human)) was 104%. For the same compound, the residual activity (SRPK2 (human)) was 95.2%, the residual activity (CSK (human)) was 85% and the residual activity (PRKACG (human)) was 99.2%. For the same compound, the residual activity (AXL (human)) was 106%, the residual activity (PRKD1 (human)) was 91.5% and the residual activity (MAPK8 (human)) was 82.8%. It also gave a residual activity (CSNK2A1 (human)) of 26.5%, a residual activity (ROCK1 (human)) of 93.2% and a residual activity (LCK (human)) of 88.2%. It also gave a residual activity (CAMK1D (human)) of 104%, a residual activity (RPS6KA3 KD1 KD2 (human)) of 96% and a residual activity (EPHA4 (human)) of 93.1%. It also gave a residual activity (CDK6 CCND1 (human)) of 97%, a residual activity (MAP4K2 (human)) of 62.6% and a residual activity (DYRK3 (human)) of 91.8%. For the same compound, the residual activity (STK38 (human)) was 85.4%, the residual activity (SLK (human)) was 95.3% and the residual activity (STK10 (human)) was 77.1%.
In the case of `CNc1cc2c(Nc3cccc(Br)c3)ncnc2cn1`, the residual activity (AKT3 (human)) is reported as 103%, the residual activity (CAMK2A (human)) is reported as 105% and the residual activity (BTK (human)) is reported as 94.7%. It also gave a residual activity (CAMK2D (human)) of 97.9%, a residual activity (FER (human)) of 97.1% and a residual activity (MAP3K5 (human)) of 94.6%. For the same compound, the residual activity (PAK6 (human)) was 96.6%, the residual activity (STK33 (human)) was 95.2% and the residual activity (PTK2B (human)) was 94.5%. For the same compound, the residual activity (TAOK3 (human)) was 94%, the residual activity (ACVR1B (human)) was 97.7% and the residual activity (INSR (human)) was 100%. For the same compound, the residual activity (PBK (human)) was 102%, the residual activity (DAPK1 (human)) was 80.5% and the residual activity (MAPK11 (human)) was 115%. The residual activity [1] was 80.8%, the residual activity (MAP3K8 (human)) was 90.2% and the residual activity (MAP3K14 (human)) was 126%. The residual activity (AURKC (human)) was 85.9%, the residual activity (MAP3K3 (human)) was 73.3% and the residual activity (PDGFRB (human)) was 86.4%. It also gave a residual activity (PRKD3 (human)) of 78.5%, a residual activity (CDK2 CCNA2 (human)) of 106% and a residual activity (NEK11 (human)) of 106%. For the same compound, the residual activity (SRPK2 (human)) was 89.4%, the residual activity (CSK (human)) was 82% and the residual activity (PRKACG (human)) was 115%. The residual activity (AXL (human)) was 98.6%, the residual activity (PRKD1 (human)) was 92.3% and the residual activity (MAPK8 (human)) was 96.4%. For the same compound, the residual activity (CSNK2A1 (human)) was 94.3%, the residual activity (ROCK1 (human)) was 98.8% and the residual activity (LCK (human)) was 96.7%. For the same compound, the residual activity (CAMK1D (human)) was 92.5%, the residual activity (RPS6KA3 KD1 KD2 (human)) was 86.6% and the residual activity (EPHA4 (human)) was 94.2%. The residual activity (CDK6 CCND1 (human)) was 82.2%, the residual activity (MAP4K2 (human)) was 74.8% and the residual activity (DYRK3 (human)) was 84.4%. For the same compound, the residual activity (STK38 (human)) was 98.5%, the residual activity (SLK (human)) was 63% and the residual activity (STK10 (human)) was 31.8%.
